From ChEMBL document CHEMBL1154348, “Arginine-pyrimidine conjugates with therapeutic and prophylactic activity in lethal bacterial infections” (Bioorg Med Chem Lett, 2009)
Activity calls are given as the source filed them. The rule behind the calls is not given here.

Columns and labels:
[1] = Therapeutic efficacy against Staphylococcus aureus infected lethal mouse sepsis model assessed as survival at 30 mg/kg, ip administered 0.5 hrs and 4 hrs post infection; assay type: organism-based; design: dose 30 mg/kg, route intraperitoneal; conditions: in vivo
[2] = Therapeutic efficacy against Escherichia coli infected lethal mouse sepsis model assessed as survival at 30 mg/kg, ip administered 0.5 hrs and 4 hrs post infection; assay type: organism-based; design: dose 30 mg/kg, route intraperitoneal; conditions: in vivo
[3] = Cmax in mouse at 100 mg/kg, ip after 30 mins; assay type: ADME, organism-based; design: dose 100 mg/kg, route intraperitoneal; conditions: in vivo
[4] = Half life in mouse at 100 mg/kg, ip after 30 mins; assay type: ADME, organism-based; design: dose 100 mg/kg, route intraperitoneal; conditions: in vivo
[5] = tested on: Mus musculus; test: Subchronic toxicity in mouse up to 450 mg/kg, ip after 5 days; assay type: organism-based; design: dose 450 mg/kg, route intraperitoneal; conditions: in vivo, 120 h
[6] = tested on: Escherichia coli; test: Prophylactic efficacy against Escherichia coli infected lethal mouse sepsis model assessed as survival at 50 mg/kg, ip administered 1 hr before infection; assay type: functional; conditions: route intraperitoneal
[7] = tested on: Staphylococcus aureus; test: Antibacterial activity against Staphylococcus aureus; assay type: functional
[8] = tested on: Escherichia coli; test: Antibacterial activity against Escherichia coli infected lethal mouse sepsis model assessed as reduction in bacterial load in mouse blood at 50 mg/kg, ip administered 0.5 hrs and 4 hrs post infection measured after 5 hrs; assay type: functional; conditions: route intraperitoneal
[9] = tested on: Escherichia coli; test: Prophylactic efficacy against Escherichia coli infected lethal mouse sepsis model assessed as survival at 50 mg/kg, ip administered 0.5 hrs before infection; assay type: functional; conditions: route intraperitoneal
[10] = tested on: Escherichia coli; test: Antibacterial activity against Escherichia coli; assay type: functional
[11] = tested on: Escherichia coli; test: Prophylactic efficacy against Escherichia coli infected lethal mouse sepsis model assessed as survival at 50 mg/kg, ip administered 3 hrs before infection; assay type: functional; conditions: route intraperitoneal
[12] = tested on: Mus musculus; test: Acute toxicity in mouse up to 450 mg/kg, ip after 5 days; assay type: organism-based; design: dose 450 mg/kg, route intraperitoneal; conditions: in vivo, 120 h
[13] = tested on: Streptococcus pyogenes; test: Antibacterial activity against Streptococcus pyogenes infected in cyclophosphamide-treated immunocompromized mouse assessed as inhibition of muscle infection; assay type: functional, organism-based; conditions: Muscle tissue
[14] = tested on: Escherichia coli; test: Antibacterial activity against Escherichia coli infected lethal mouse sepsis model assessed as reduction in bacterial load in mouse blood at 50 mg/kg, ip administered as single dose 0.5 hrs post infection measured after 5 hrs; assay type: functional; conditions: route intraperitoneal
[15] = tested on: Pseudomonas aeruginosa; test: Antibacterial activity against Pseudomonas aeruginosa infected in cyclophosphamide-treated immunocompromized mouse assessed as inhibition of wound infection; assay type: functional, organism-based
[16] = tested on: Escherichia coli; test: Prophylactic efficacy against Escherichia coli infected lethal mouse sepsis model assessed as survival at 50 mg/kg, ip administered 2 hrs before infection; assay type: functional; conditions: route intraperitoneal
[17] = tested on: Plasma; test: Stability in mouse plasma after 3 hrs; assay type: ADME, cell-free

CN(CCCNC(=O)[C@@H](N)CCCNC(=N)N)c1ncccn1
Efficacy [1]: 40%
Efficacy [2]: 40%

O=C(O)c1cn(C2CC2)c2cc(N3CCNCC3)c(F)cc2c1=O [CIPROFLOXACIN]
Efficacy [1]: 40%
Efficacy [2]: 60%

CN(CCCN(C)c1ncccn1)C(=O)[C@@H](N)CCCNC(=N)N
Cmax [3]: 56 µg/mL
half-life [4]: 1 h
Activity [5]: Non-toxic
Efficacy [6]: 80%
MIC [7]: > 250 µg/mL
CFU [8]: 3.7 ×10² /ml
Efficacy [9]: 80%
MIC [10]: > 250 µg/mL
Efficacy [11]: 40%
Efficacy [1]: 60%
Activity [12]: Non-toxic
Activity [13]: inactive
CFU [14]: 2.7 ×10³ /ml
Activity [15]: inactive
Efficacy [16]: 60%
Efficacy [2]: 80%
Stability [17]: Stable
